Measured values: PMC5218821 (Journal of ocular biology, 2016)

Biological target: T1, soluble epoxide hydrolase (sEH) (Oryctolagus cuniculus, UniProt A0A5F9CRP6)
T1 construct: gene ADAM2
T1 sequence (A0A5F9CRP6 1-555): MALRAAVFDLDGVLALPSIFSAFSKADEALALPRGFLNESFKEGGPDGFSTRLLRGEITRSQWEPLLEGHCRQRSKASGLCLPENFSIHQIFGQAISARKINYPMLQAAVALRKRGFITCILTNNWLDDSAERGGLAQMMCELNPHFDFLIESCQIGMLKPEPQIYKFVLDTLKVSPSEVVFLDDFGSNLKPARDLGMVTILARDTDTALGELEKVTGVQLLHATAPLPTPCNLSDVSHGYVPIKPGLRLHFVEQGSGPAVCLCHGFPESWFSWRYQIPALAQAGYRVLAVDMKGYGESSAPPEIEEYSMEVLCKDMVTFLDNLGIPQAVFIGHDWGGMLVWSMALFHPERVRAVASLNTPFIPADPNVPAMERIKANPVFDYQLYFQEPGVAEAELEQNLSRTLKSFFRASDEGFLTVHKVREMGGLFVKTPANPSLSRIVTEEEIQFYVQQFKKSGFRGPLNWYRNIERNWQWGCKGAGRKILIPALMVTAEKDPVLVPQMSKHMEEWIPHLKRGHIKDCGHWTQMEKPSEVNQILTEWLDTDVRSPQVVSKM
Test: biochemical

## CS(=O)(=O)N1CCC(NC(=O)Nc2ccc(OC(F)(F)F)cc2)CC1 [UC1709, TUPS]
  IC50: 88 nM
